Test results: patent US20250381161A1, “COMPOSITIONS AND METHODS FOR TREATING HEARING AND OCULAR DISORDERS” (Anida Pharma Inc., priority 2022, published 2025)

Assay: Release of compound 1 in artificial tear medium from dialysis tubes into artificial tear fluid, quantified via HPLC
Format: physicochemical
Details: room temperature, 100 rpm
Protocol: 0.5 mL of unformulated compound 1 dissolved in artificial tear medium (i.e., equivalent to physiological buffer solution/PBS) was filled into dialysis tubes (Spectra/Por® Biotech CE MWCO 100-500, 10 mm), sealed and immersed into containers filled with 5 mL artificial tear fluid (ATF) serving as release medium (Table 2). The samples were incubated at room temperature and shaken at 100 rpm. After 0 hours, 0.5 hours, 1 hour, 2 hours, 4 hours and 24 hours, samples were withdrawn and the amount of released compound 1 was quantified via HPLC.

- Release (%) (time point 0.5 h): 0.8%
- Release (%) (time point 1 h): 2%
- Release (%) (time point 2 h): 7%
- Release (%) (time point 4 h): 17%
- Release (%) (time point 24 h): 59%
SMILES: CC/C=C\C[C@H](O)\C=C/C=C/C=C/[C@H](O)C/C=C\C/C=C\CCC(=O)[O-].[Na+] [Compound 1, Sodium (4Z,7Z,10R,11E,13E,15Z,17S, 19Z)-10,17-dihydroxydocosa-4,7,11,13,15,19-hexaenoate]
